We go through 14 compounds from patent US12383533B2 (Frost Biologic, Inc., priority 2014, dated 2025).

The test system of one test is A2780 cells. Put plainly: Cell Viability Assay (ATPlite 1step), A2780. The conditions noted are these: Homo sapiens, 72 hours; for percent inhibition of cell viability at 4 µM: A2780, 4 uM compound, read-out: Cell Viability % inhibition A2780 (4 uM Cpd); for percent inhibition of cell viability at 20 µM: A2780, 20 uM compound, read-out: Cell Viability % inhibition A2780 (20 uM Cpd). It is filed as cell-based. The essentials: (§1)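 Cells seeded at 1000/well, grown 24 h at 37 °C/5% CO2, then exposed to compounds (DMSO stock diluted in media) for 72 h; viability read by ATPlite 1step luminescence. A2780 and PC3 in RPMI, MCF-7 in K-12F, each with 10% FBS.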

The next test concerns porcine neuronal tubulin. As to the kind of experiment: Tubulin Polymerization Assay. The format is biochemical. The conditions noted are these: porcine tubulin 2.0 mg/ml, 37° C., fluorescence; read-out: IC50 (tubulin polymerization, from Vmax). An excerpt: Tubulin Polymerization Assay
The Tubulin Polymerization Assay uses porcine neuronal tubulin and measurements are based on fluorescence enhancement due to the incorporation of a fluorescent reporter into microtubules as polymerization occurs. The assay generates a polymerization curve representing the three phases of microtubule formation (nucleation, growth and equilibrium). IC50 values for tested compounds can be generated from the observed polymerization curves.
Procedure: All compounds dilutions (in DMSO) were prepared prior to the following steps. A Molecular Devices M2 plate reader was set to 37° C. Once the internal temperature of the plate reader reached 37° C. a 96 well plate (Corning Costar, at. #3686) was placed in the fluorimeter and allowed to warm to 37° C. for 30 minutes. A total of 10 mg of porcine tubulin was resuspended in […] of Polymerization Buffer [Buffer 1 (80 mM PIPES pH 6.9, 2.0 mM MgCl2, 0.5 mM EGTA, 1.0 mM GTP and 10 μM fluorescent reporter) supplemented with 20% glycerol] to generate a 2.0 mg/ml tubulin stock and this was kept on ice. The 50× compound stocks in 100% DMSO were spotted 1 μl/well in duplicate into the wells of the 96-well plate at 37° C. and allowed to re-warm for 5 minutes at 37° C. During this incubation the 2.0 mg/ml tubulin stock was placed in a disposable plastic trough and allowed to warm briefly at room temperature. To initiate the reaction, 50 μl/well of 2.0 mg/ml tubulin in Polymerization Buffer was added to each well using a multi-channel pipettor and the fluorescence measurements were started immediately.
The maximal velocity (Vmax) of tubulin polymerization was determined using linear regression of the averaged fluorescence data at each time point using GraphPad Prism 5.0 software. The Vmax determinations for each compound at each concentration were then normalized to reactions that contained DMSO (2% final concentration) but no test compounds. This converted the data to % Activity, which refers to the percent of the Vmax of an uninhibited reaction. The concentration response curves were then plotted as the % Activity versus the Log 10 of the compound concentration in micromolar and fit by non-linear regression to a 4-parameter sigmoidal dose-response equation using GraphPad Prism 5.0 software to determine the IC50 for each compound.

The test system of the next test is MCF-7 cells. Put plainly: Cell Viability Assay (ATPlite 1step), MCF-7. The format is cell-based. The conditions noted are these: Homo sapiens, MCF7, 72 hours; for percent inhibition of cell viability at 4 µM: MCF-7, 4 uM compound, read-out: Cell Viability % inhibition MCF-7 (4 uM Cpd); for percent inhibition of cell viability at 20 µM: MCF-7, 20 uM compound, read-out: Cell Viability % inhibition MCF-7 (20 uM Cpd). The procedure:
Cell Viability Assay Protocol
Cells were trypsinized, counted, and re-seeded into a 384-well tissue culture plate at 1000 cells per well in […] media. Cells were incubated at 37° C. in an atmosphere of 5% CO2 for 24 hours. Experimental compounds, initially dissolved in DMSO and diluted further in media were added to the wells and incubated for 72 hours. Cell viability was measured using the ATPlite 1step Luminescence Detection Assay system (Perkin Elmer) as described in the Assay kit instructions.
Cell Culture Lines and Media: (1) A2780 cells were cultured in RPMI media with 10% FBS and 1% antibiotics. Cells were typically split every 3-5 days at a 1:10 dilution; (2) PC3 cells were cultured in RPMI media with 10% FBS and 1% antibiotics. Cells were typically split every 3-5 days at a 1:4 dilution; (3) MCF-7 cells were grown in K-12F media with 10% FBS and 1% antibiotics. Cells were typically split every 3-5 days at a 1:10 dilution.
A general note: ATP-based viability assays read luminescence as a measure of living cells.

Another test concerns PC3 cells. Put plainly: Cell Viability Assay (ATPlite 1step), PC3. It is filed as cell-based. The conditions noted are these: Homo sapiens, PC-3, 72 hours; for percent inhibition of cell viability at 4 µM: PC3, 4 uM compound, read-out: Cell Viability % inhibition PC3 (4 uM Cpd); for percent inhibition of cell viability at 20 µM: PC3, 20 uM compound, read-out: Cell Viability % inhibition PC3 (20 uM Cpd). The essentials: as §1

As for `O=C(Nc1ccc(-c2ccccc2)cn1)c1cncnc1` [Compound 1], the percent inhibition of cell viability at 4 µM is 84.2% in the test with A2780 cells, 46.1% with MCF-7 cells and 59.1% in the test with PC3 cells. The percent inhibition of cell viability at 20 µM was 93.6% with A2780 cells, 68.4% in the test on MCF-7 cells and 72.2% in the test on PC3 cells. For the same compound, in the test on porcine neuronal tubulin, the IC50 stood at 1400 nM.

On to `O=C(Nc1ccc(-c2cccc(Cl)c2)cn1)c1cncnc1` [Compound 3, N-[5-(3-chlorophenyl)pyridin-2-yl]pyrimidine-5-carboxamide], for which the percent inhibition of cell viability at 4 µM in the test on A2780 cells amounted to 84.8%; in the test on MCF-7 cells, 50.6%; in the test on PC3 cells, 60.9%. Moreover, the figures for the percent inhibition of cell viability at 20 µM in the test on A2780 cells, in the test with MCF-7 cells and with PC3 cells were 90.2%, 56.8% and 68.3%, respectively. Moreover, the IC50 with porcine neuronal tubulin was 1450 nM.

Consider `O=C(Nc1ccc(-c2cccc(C3CC3)c2)cn1)c1cncnc1` [Compound 16, N-[5-(3-cyclopropylphenyl)pyridin-2-yl]pyrimidine-5-carboxamide], for which the percent inhibition of cell viability at 4 µM with A2780 cells was determined as 90.4%; in the test with MCF-7 cells it was 70.2%; in the test on PC3 cells, 73.7%. Moreover, the percent inhibition of cell viability at 20 µM amounted to 92.1% in the test with A2780 cells, 78.4% in the test on MCF-7 cells and 77.7% in the test on PC3 cells. Besides, the IC50 in the test with porcine neuronal tubulin turned out to be 480 nM.

For `Cc1ncc(C(=O)Nc2ccc(-c3cccc(C4CC4)c3)cn2)cn1` [Compound 23, N-[5-(3-cyclopropylphenyl)pyridin-2-yl]-2-methylpyrimidine-5-carboxamide], in the test with A2780 cells, the percent inhibition of cell viability at 4 µM came out at 71.5% and the percent inhibition of cell viability at 20 µM amounted to 80.3%. Moreover, in the test with porcine neuronal tubulin, the IC50 worked out at 890 nM. Moreover, in the test on PC3 cells, the percent inhibition of cell viability at 4 µM turned out to be 53.7% and the percent inhibition of cell viability at 20 µM came out at 66.2%.

As to `Cc1ncc(C(=O)Nc2ccc(-c3cccc(OC4CC4)c3)cn2)cn1` [Compound 27, N-{5-[3-(cyclopropyloxy)phenyl]pyridin-2-yl}-2-methylpyrimidine-5-carboxamide], in the test with A2780 cells, the percent inhibition of cell viability at 4 µM came to 77.3% and the percent inhibition of cell viability at 20 µM was 77.4%. Besides, the IC50 in the test on porcine neuronal tubulin was determined as 680 nM. Besides, in the test with PC3 cells, the percent inhibition of cell viability at 4 µM was 58.3% and the percent inhibition of cell viability at 20 µM came to 69.6%.

In the case of `Cc1ncc(C(=O)Nc2ccc(-c3cccc(NC4CC4)c3)cn2)cn1` [Compound 31, N-{5-[3-(cyclopropylamino)phenyl]pyridin-2-yl}-2-methylpyrimidine-5-carboxamide], the percent inhibition of cell viability at 4 µM in the test on A2780 cells was 70.9%; in the test on PC3 cells, 51.8%. Also, the percent inhibition of cell viability at 20 µM was 71.2% in the test with A2780 cells and 43.7% in the test on PC3 cells. In addition, the IC50 in the test with porcine neuronal tubulin was 320 nM.

On to `Cc1ccc(C(=O)Nc2ccc(-c3cccc(C4COC4)c3)cn2)cn1` [Compound 44, 6-methyl-N-{5-[3-(oxetan-3-yl)phenyl]pyridin-2-yl}pyridine-3-carboxamide], for which, in the test with A2780 cells, the percent inhibition of cell viability at 4 µM turned out to be 86.5% and the percent inhibition of cell viability at 20 µM worked out at 86.1%. Moreover, the IC50 in the test with porcine neuronal tubulin was found to be 300 nM. For the same compound, in the test with PC3 cells, the percent inhibition of cell viability at 4 µM turned out to be 81.8% and the percent inhibition of cell viability at 20 µM is 84.6%.

Regarding `Cc1ncc(C(=O)Nc2ccc(-c3ccsc3)cn2)cn1` [Compound 61, 2-methyl-N-[5-(thiophen-3-yl)pyridin-2-yl]pyrimidine-5-carboxamide], the percent inhibition of cell viability at 4 µM in the test with A2780 cells was 86.5%; with MCF-7 cells, 73.3%; in the test with PC3 cells, 58.3%. For the same compound, the percent inhibition of cell viability at 20 µM in the test with A2780 cells is 89.7%; in the test on MCF-7 cells, 72.9%; in the test on PC3 cells, 70.6%. Also, the IC50 in the test on porcine neuronal tubulin turned out to be 260 nM.

On to `Cc1ncc(C(=O)Nc2ccc(-c3cccc(S(=O)(=O)C4CC4)c3)cn2)cn1` [Compound 63, N-{5-[3-(cyclopropylsulfonyl)phenyl]pyridin-2-yl}-2-methylpyrimidine-5-carboxamide], for which the percent inhibition of cell viability at 4 µM in the test on A2780 cells came to 85.6%; with MCF-7 cells, 59.1%; in the test on PC3 cells it was 61.4%. Further, the values for the percent inhibition of cell viability at 20 µM with A2780 cells, with MCF-7 cells and in the test with PC3 cells were 88%, 65.1% and 67.6%, respectively. Besides, the IC50 in the test with porcine neuronal tubulin worked out at 240 nM.

On to `Cc1ncc(C(=O)Nc2ccc(-c3cccc(S(=O)(=O)C4CC4)c3)c(C)n2)cn1` [Compound 64, N-{5-[3-(cyclopropylsulfonyl)phenyl]-6-methylpyridin-2-yl}-2-methylpyrimidine-5-carboxamide], for which the percent inhibition of cell viability at 4 µM in the test on A2780 cells was 80%; with MCF-7 cells it was 73.5%; with PC3 cells, 59.4%. Besides, the percent inhibition of cell viability at 20 µM with A2780 cells was found to be 81.5%; in the test with MCF-7 cells, 74.5%; in the test on PC3 cells it was 62.7%. The IC50 with porcine neuronal tubulin is 120 nM.

For `Cc1ncc(C(=O)Nc2ncc(-c3cccc(OC4CC4)c3)cc2F)cn1` [Compound 66, N-{5-[3-(cyclopropyloxy)phenyl]-3-fluoropyridin-2-yl}-2-methylpyrimidine-5-carboxamide], the percent inhibition of cell viability at 4 µM in the test with A2780 cells worked out at 89%; with MCF-7 cells, 75%; in the test on PC3 cells, 66%. The percent inhibition of cell viability at 20 µM in the test on A2780 cells amounted to 88.4%; with MCF-7 cells it was 76%; in the test with PC3 cells, 70.6%. Moreover, the IC50 with porcine neuronal tubulin was determined as 3840 nM.

Take `Cc1ncc(C(=O)Nc2ncc(-c3cccc(NC4CC4)c3)cc2F)cn1` [Compound 68, N-{5-[3-(cyclopropylamino)phenyl]-3-fluoropyridin-2-yl}-2-methylpyrimidine-5-carboxamide]: the percent inhibition of cell viability at 4 µM in the test with A2780 cells was 87.1%; in the test on MCF-7 cells it was 54.3%; with PC3 cells, 58.4%. For the same compound, the percent inhibition of cell viability at 20 µM amounted to 89% in the test on A2780 cells, 59.3% with MCF-7 cells and 64.4% with PC3 cells.

`CC[C@]1(O)C[C@@H]2CN(CCc3c([nH]c4ccccc34)[C@@](C(=O)OC)(c3cc4c(cc3OC)N(C)[C@H]3[C@@](O)(C(=O)OC)[C@H](OC(C)=O)[C@]5(CC)C=CCN6CC[C@]43[C@@H]65)C2)C1` [Vinblastine, reference compound]: in the test with porcine neuronal tubulin, the half-maximal inhibitory concentration (IC50) was 200 nM.

Turning to `CC[C@]1(O)C[C@H]2CN(CCc3c([nH]c4ccccc34)[C@@](C(=O)OC)(c3cc4c(cc3OC)N(C=O)[C@H]3[C@@](O)(C(=O)OC)[C@H](OC(C)=O)[C@]5(CC)C=CCN6CC[C@]43[C@@H]65)C2)C1` [Vincristine, reference compound], the IC50 in the test with porcine neuronal tubulin stood at 680 nM.

The term IC50 denotes the midpoint of a concentration-inhibition curve.
